Several values for one entry are separate records, joined by “and”; a condition that tells them apart may be missing. Equal values may be shown once.
What was measured:
Type in all cases: in vivo, human
[1] = system: serum alkaline phosphatase (S-ALP); assay: S-ALP analysis in prostate cancer patients (clinical study CS21); conditions: Leuprolide 7.5 mg
Protocol: Patients with histologically confirmed adenocarcinoma of the prostate (all stages), for whom androgen deprivation therapy was indicated were recruited. Baseline characteristics were well balanced between groups. Approximately half of patients had locally advanced (29.2%) or metastatic (20.5%) disease at baseline. […] Patients receiving leuprolide could also receive bicalutamide for clinical flare protection. The S-ALP levels were measured in each patient at various time points, by taking a blood sample and analyzing for S-ALP. S-ALP levels were measured using a standardized colorimetric assay based on the p-nitrophenyl phosphate AMP buffer method. The normal range for S-ALP is 44-147 IU/L. The S-ALP values in non-metastatic patients serve as controls. An ANOVA analysis with treatment and day as factors and baseline value as covariate was used to determine between treatment differences at Day 364. A repeated measures analysis (incorporating all time points from Day 112) with treatment and day as factors and baseline value as covariate was used to assess between treatment differences from Day 112 to Day 364.

[2] = system: prostate-specific antigen (PSA); assay: PSA failure in prostate cancer patients (clinical study CS21); conditions: for proportion of PSA failures: leuprolide 7.5 mg
Protocol: For this analysis, PSA failure (a secondary endpoint) was defined as two consecutive increases in PSA of 50% and 5 ng/mL compared with nadir. The time to PSA failure was defined as the number of days from first dosing to where an increase in serum PSA of 50% from nadir and 5 ng/mL, measured on two consecutive occasions at least two weeks apart, was noted. The second occasion was the time point of meeting the criterion. PSA failure rates were also analyzed by disease stage and baseline PSA level.
(§1) The secondary efficacy endpoints were: the proportion of patients with testosterone surge during the first 2 weeks of treatment; the proportion of patients with testosterone level ≦0.5 ng/mL at day 3; the percentage change in PSA from baseline to day 28; the probability of testosterone ≦0.5 ng/mL from day 56 through day 364; the levels of serum testosterone, LH, FSH and PSA over time through the study; the time to PSA failure, defined as two consecutive increases of 50%, and at least 5 ng/mL as compared to nadir; degarelix concentration over the first month and trough levels at day 308 and 336; the frequency and size of testosterone increases at day 255 and/or 259 compared to the testosterone level at day 252; the quality of life on days 0, 28, 84, 168 and end of study visit; the frequency and intensity of hot flushes experienced (scored daily from study start until end of study visit). In addition, two further secondary endpoints were added: the probability of sufficient testosterone response from day 28 through day 364 (a patient was considered to have insufficient testosterone response if they had one testosterone value >1.0 ng/mL or two consecutive testosterone values >0.5 ng/mL at day 28 onwards); and the percentage change in PSA from baseline to day 14.
The secondary endpoints, probability of testosterone ≦0.5 ng/mL from day 56 through day 364, time to PSA failure, and probability of sufficient testosterone response from day 28 through day 364 were analyzed by the Kaplan-Meier method.

testosterone = conditions: leuprolide 7.5 mg group
Protocol: The study also evaluated the pharmacokinetics of the degarelix dosing regimens investigated. Finally, the study examined the effects of using the degarelix treatment on patients suffering from different stages of cancer. […] The primary efficacy endpoint was the probability of testosterone levels remaining ≦0.5 ng/mL from day 28 through day 364. […] The primary efficacy endpoint was analyzed for both the ITT and PP analysis sets, with the ITT analysis set considered primary. The primary efficacy endpoint was analyzed using the Kaplan Meier method. For each of the three treatment groups, testosterone response rates with 95% confidence interval (CI) were calculated by log-log transformation of survivor function. […] All secondary efficacy endpoints were analyzed for both the ITT and PP analysis sets, unless otherwise stated. […] The percentage change in PSA from baseline to day 28 endpoint was analyzed by a Wilcoxon test.

[3] = system: prostate-specific antigen (PSA); assay: Serum PSA level change in prostate cancer patients (clinical study CS21); conditions: leuprolide 7.5 mg patients who did not receive anti-androgen therapy
Protocol: All secondary efficacy endpoints were analyzed for both the ITT and PP analysis sets, unless otherwise stated. The proportion of patients with testosterone surge during the first 2 weeks of treatment was analyzed using Fisher's exact test. […] The percentage change in PSA from baseline to day 28 endpoint was analyzed by a Wilcoxon test.

luteinizing hormone (LH) = assay: Serum LH levels over time (clinical study CS21); conditions: leuprolide 7.5 mg group
Protocol: (§2) The study also investigated whether degarelix is safe and effective with respect to achieving and maintaining testosterone suppression to castrate levels, evaluated as the proportion of patients with testosterone suppression ≦0.5 ng/mL during 12 months of treatment. […] The study also evaluated the pharmacokinetics of the degarelix dosing regimens investigated. Finally, the study examined the effects of using the degarelix treatment on patients suffering from different stages of cancer.
(§3) Patients in two treatment groups received a degarelix starting dose of 240 mg at a concentration of 40 mg/mL (240@40) on day 0 administered as two equivalent subcutaneous (s.c.) injections of 120 mg each. Thereafter, patients received 12 additional single s.c. degarelix doses of either 80 mg at a concentration of 20 mg/mL (80@20: degarelix 240/80 mg group) or 160 mg at a concentration of 40 mg/mL (160@40: degarelix 240/160 mg group) administered s.c. every 28 days.
as §1

[4] = system: follicle stimulating hormone (FSH); assay: Serum FSH levels over time (clinical study CS21); conditions: leuprolide 7.5 mg group
Protocol: as §2, §3, §1

## CCNC(=O)[C@@H]1CCCN1C(=O)[C@H](CCCNC(=N)N)NC(=O)[C@H](CC(C)C)NC(=O)[C@@H](CC(C)C)NC(=O)[C@H](Cc1ccc(O)cc1)NC(=O)[C@H](CO)NC(=O)[C@H](Cc1c[nH]c2ccccc12)NC(=O)[C@H](Cc1c[nH]cn1)NC(=O)[C@@H]1CCC(=O)N1 [leuprolide, reference compound]
[1]; Localized, Day 112
  S-ALP mean change from baseline: +5 IU/L
[1]; Localized, Day 224
  S-ALP mean change from baseline: +7 IU/L
[1]; Localized, Day 364
  S-ALP mean change from baseline: +9 IU/L
[1]; Locally advanced, Day 112
  S-ALP mean change from baseline: −1 IU/L
[1]; Locally advanced, Day 224
  S-ALP mean change from baseline: −1 IU/L
[1]; Locally advanced, Day 364
  S-ALP mean change from baseline: +6 IU/L
[1]; Metastatic (Hb < 130 g/L), Day 112
  S-ALP mean change from baseline: −30 IU/L
[1]; Metastatic (Hb < 130 g/L), Day 224
  S-ALP mean change from baseline: −70 IU/L
[1]; Metastatic (Hb < 130 g/L), Day 364
  S-ALP mean change from baseline: −10 IU/L
[1]; Metastatic, Day 112
  S-ALP mean change from baseline: −20 IU/L
[1]; Metastatic, Day 224
  S-ALP mean change from baseline: −50 IU/L
[1]; Metastatic, Day 364
  S-ALP mean change from baseline: 0 IU/L
[1]; baseline PSA 10-20 ng/mL, Day 112
  S-ALP mean change from baseline: +5 IU/L
[1]; baseline PSA 10-20 ng/mL, Day 224
  S-ALP mean change from baseline: +8 IU/L
[1]; baseline PSA 10-20 ng/mL, Day 364
  S-ALP mean change from baseline: +8 IU/L
[1]; baseline PSA 20-50 ng/mL, Day 112
  S-ALP mean change from baseline: +5 IU/L
[1]; baseline PSA 20-50 ng/mL, Day 224
  S-ALP mean change from baseline: +8.5 IU/L
[1]; baseline PSA 20-50 ng/mL, Day 364
  S-ALP mean change from baseline: +11 IU/L
[1]; baseline PSA < 10 ng/mL, Day 112
  S-ALP mean change from baseline: +4.5 IU/L
[1]; baseline PSA < 10 ng/mL, Day 224
  S-ALP mean change from baseline: +6 IU/L
[1]; baseline PSA < 10 ng/mL, Day 364
  S-ALP mean change from baseline: +7.5 IU/L
[1]; baseline PSA > 50 ng/mL, Day 112
  S-ALP mean change from baseline: −40 IU/L
[1]; baseline PSA > 50 ng/mL, Day 224
  S-ALP mean change from baseline: −60 IU/L
[1]; baseline PSA > 50 ng/mL, Day 364
  S-ALP mean change from baseline: +10 IU/L
[2]; leuprolide 7.5 mg group
  probability of completing the study without experiencing PSA failure by day 364: 85.9% and ~85.8%
[2]; patients with baseline PSA>50 ng/mL
  proportion of PSA failures: 40.0%
[2]; patients with metastatic disease at baseline
  proportion of PSA failures: 36.2%
testosterone
  Kaplan-Meier estimate of the probability of testosterone ≦0.5 ng/mL from day 28 to day 364: 96.4%
  patients exhibiting testosterone suppression on day 3: no patients
testosterone; observed cases analysis
  overall proportion of patients with testosterone ≦0.5 ng/mL from day 28 to day 364: 96.0%
[3]; day 14
  PSA median percentage reduction from baseline: 15.3%
[3]; day 28
  PSA median percentage reduction from baseline: 61.7%
Luteinizing hormone (LH); by day 56, remaining until day 364
  median LH level: 0.035 IU/L
Luteinizing hormone (LH); day 1
  increase of median LH from baseline: > 400%
  median LH level, peak: 31.0 IU/L
[4]; by day 14
  FSH level: 2.0 IU/L
[4]; day 1
  FSH level, peak: 22.5 IU/L
  increase of FSH from baseline: 146%
[4]; from around day 56 until day 364
  Median FSH plateau: approximately 4.40 IU/L
